{
  "source": "paper PMC12609579",
  "about": "“Acute Myeloid Leukemia: A Key Role of DGKα and DGKζ in Cell Viability” (Cells, 2025)",
  "key": {"THP-1 cells": {"system": "THP-1 cells", "assay": "Proteomic profiling (DIA mass spectrometry) of treated THP-1 cells vs DMSO", "format": "cell-based, human", "description": "Cells were lysed in RIPA buffer and sonicated. Proteins were precipitated with cold acetone, pelleted, and resuspended. Reduction was carried out in 25 µL of 100 mM NH4HCO3 with 2.5 µL of 200 mM DTT (Merck, St. Louis, MO, USA) at 60 °C for 45 min, followed by alkylation with 10 µL of 200 mM iodoacetamide (Merck, St. Louis, MO, USA) for 1 h at room temperature in the dark. Excess iodoacetamide was quenched by adding 200 mM DTT. Proteins were then digested with trypsin, dried by SpeedVac, and desalted. Peptides were analyzed on an Ultimate 3000 RSLCnano system coupled to an Orbitrap Exploris 480 equipped with FAIMS (all from Thermo Fisher Scientific). Samples were loaded onto a reversed-phase C18 column (15 cm × 75 µm i.d., Thermo Fisher Scientific) and eluted at 500 nL min^−1 using a 6–95% solvent B gradient over 41 min, followed by 1 min of re-equilibration at 6% B. Data were acquired in positive mode with a spray voltage of 2500 V and FAIMS in standard resolution at a compensation voltage of −45 V. Data-independent acquisition (DIA) was performed with a precursor m/z range of 400–900, using 8 m/z isolation windows with 1 m/z overlap, HCD collision energy of 27%, Orbitrap resolution of 30,000, RF Lens 50%, normalized AGC target 1000, maximum injection time 25 ms, and 1 microscan. DIA data were processed with DIA-NN (v1.8.1) in library-free mode, applying deep-learning prediction for spectra, retention times, and ion mobility. Searches assumed Trypsin/P specificity, precursor charges 1–4, peptide lengths of 7–30 amino acids, and precursor m/z values of 400–900, allowing up to two missed cleavages. Carbamidomethylation of Cys was set as a fixed modification; Met oxidation was set as a variable modification (maximum two per peptide). The false discovery rate was maintained at 1%.\nNormalized data from two independent proteomic experiments were obtained, each comparing a treatment condition to DMSO: (1) ritanserin vs. DMSO and (2) BAY 2965501 vs. DMSO. For each condition, three biological replicates were analyzed.\nProtein abundance differences were calculated separately for each treatment relative to DMSO using a t-test, generating log2 fold change (log2FC) and adjusted p-values (p-adj). All proteins identified by UniProt ID were annotated with the corresponding gene symbol using QIAGEN Ingenuity Pathway Analysis (IPA; QIAGEN Inc., https://digitalinsights.qiagen.com/IPA, accessed on 5 June 2025). Proteins lacking a gene symbol were annotated as NA [42].\nData were filtered to include only proteins with |log2FC| > 2 and p-adj < 0.05, and retaining those annotated with a gene symbol.\nCells treated with equal amounts of DMSO (vehicle) were used as controls."}, "[1]": {"system": "Peripheral blood lymphocytes (PBLs)", "assay": "alamarBlue cell viability assay, PBLs from healthy donors", "format": "cell-based, human", "conditions": "for IC50: Homo sapiens, Lymphocyte, PBLs from healthy donors", "description": "These four cell lines were employed in this study as in vitro models of AML, cell line identity was verified through a Cell Line Authentication Test conducted by Eurofins Genomics (Ebersberg, Germany) or by the internal university service. The resulting markers matched 100% with those reported in the ATCC database. […] L. Manzoli (Bologna, Italy), is reported as K562-related, differing from K526 by a single marker. Cells were cultured in RPMI-1640 medium (ThermoFisher Scientific, Waltham, MA, USA) supplemented with 10% heat-inactivated fetal bovine serum (FBS) and 1% penicillin-streptomycin, following the handling protocols provided by ATCC (Manassas, VA, USA). Additionally, healthy donor blood samples were provided by the UPO biobank under approved Ethical Committee authorization (Comitato Etico Interaziendale A.O.U. Maggiore della Carità 865/CE-CE206/2022 date 24 October 2022) and with informed consent for research use. Peripheral blood mononuclear cells were isolated by density gradient centrifugation using Ficoll-Paque PLUS (GE 14 Healthcare, Chicago, IL, USA), washed, and resuspended at a concentration of 2 × 10^6 cells/mL in RPMI-1640 medium containing 10% heat-inactivated FBS. Peripheral blood lymphocytes (PBLs) were selected by the treatment with 1 μg/mL anti-CD3 (clone OKT3) and anti-CD28 (clone CD28.2) human antibodies for 72 h. […]\nThe alamarBlue assay was performed to assess cell viability in presence of chemical inhibitors. […] The fluorescence of the samples was measured 24 h later using a Spark 10 M Multimode Plate Reader (Tecan, Switzerland) with excitation and emission wavelengths of 535 nm and 590 nm, respectively. For dose–response curve fitting, fluorescence values were normalized according to the following formula:Viability (%) = [(sample mean fluorescence)/(DMSO control mean fluorescence)] ∗ 100\nData are the results of at least five independent experiments analyzed with GraphPad Prism 10 as [inhibitor] vs. normalized response curve (variable slope, after manual outlier removal). […]"}},
  "data": [
    {"molecule": "Cc1nc2sccn2c(=O)c1CCN1CCC(=C(c2ccc(F)cc2)c2ccc(F)cc2)CC1", "note": "[ritanserin]", "values": [
      {"measurement": "number of significantly downregulated proteins", "setting": "THP-1 cells; THP-1, 24 h, ritanserin 50 µM, BAY 2965501 75 µM, vs DMSO", "value": "approximately 1200"},
      {"measurement": "number of significantly upregulated proteins", "setting": "THP-1 cells; THP-1, 24 h, ritanserin 50 µM, vs DMSO", "value": 14},
      {"measurement": "log2FC A2M (P01023) protein abundance vs DMSO", "setting": "THP-1 cells; THP-1, ritanserin 50 µM, 24 h", "value": 4.998},
      {"measurement": "log2FC AAAS (Q9NRG9) protein abundance vs DMSO", "setting": "THP-1 cells; THP-1, ritanserin 50 µM, 24 h", "value": 0.1245},
      {"measurement": "log2FC AACS (Q86V21) protein abundance vs DMSO", "setting": "THP-1 cells; THP-1, ritanserin 50 µM, 24 h", "value": 1.025},
      {"measurement": "log2FC AAK1 (Q2M2I8) protein abundance vs DMSO", "setting": "THP-1 cells; THP-1, ritanserin 50 µM, 24 h", "value": -2.961},
      {"measurement": "log2FC AAMDC (Q9H7C9) protein abundance vs DMSO", "setting": "THP-1 cells; THP-1, ritanserin 50 µM, 24 h", "value": -1.488},
      {"measurement": "number of differentially abundant proteins", "setting": "THP-1 cells; THP-1, |log2FC| > 2 and p-adj < 0.05, with gene symbol, vs DMSO", "value": 1210},
      {"measurement": "IC50", "setting": "[1]; 24 h", "value": "42.9 ± 1.3", "unit": "µM"},
      {"measurement": "IC50", "setting": "[1]; 72 h", "value": "32.5 ± 1.9", "unit": "µM"},
      {"measurement": "cell death of IL-2 stimulated proliferating PBLs", "setting": "[1]; untransformed PBLs, 50 μM", "value": "complete cell death"}
    ]}
  ]
}
